Experimental data: patent US5100892A, “Dihydropyridine vasodilator agents” (Glaxo Inc., priority 1990, dated 1992)

Test system: Spontaneously Hypertensive Rats
Experiment: Spontaneously Hypertensive Rat (SHR) Test, hemodynamics in anesthetized rats
Format: in vivo, Spontaneously Hypertensive Rat (Sprague Dawley)
Settings: for HR (Heart Rate: change from basal) / LVPT (time for Left Ventricular Pressure to decay from peak to 50%, % of basal) / MBP (Mean Blood Pressure: change from basal) / RT64 (change in time from maximal relaxation, % of basal) / dP/dT40 (change in rate of systolic pressure increase of left ventricle measured at 40 mm Hg from basal): anesthetized SHR
Method: Male Retired Breeder Spontaneously Hypertensive Rats (SHR) (Sprague Dawley, 250-350 g) are anesthetized by i.p. injection of Sodium Thiopental 50 mg/kg. A catheter is inserted into the duodenum for maintenance of anesthesia throughout the experiment. A tube is inserted through a lateral incision in the trachea. The left carotid artery is exposed and a Millar SPR-249 (2-F) pressure probe is inserted and passed into the left ventricle of the heart. Left ventricular pressure (LVP), the first differential of the LVP (+dP/dT,-dP/dT), the left ventricular end diastolic pressure (LVEDP) and the differential of the increase in LVP measured at a constant pressure of 40 mm Hg (dP/dT40) are measured via this probe. In addition to these parameters, two indices of myocardial diastolic relaxation are measured namely the RT64 (time in msec from the peak derivative of maximal relaxation to 64% of that value) and the Left Ventricular Pressure Time Constant (LVPT), the half-time for decay of the LVP from peak pressure to 50% of that pressure. […] Results also are shown graphically on a Gould RS3800 Recorder. A saline filled cannula is passed into the femoral vein for infusion of drugs and one is placed into the femoral artery for measurement and recording or arterial blood pressure (Statham P23Db pressure transducer). From this signal the diastolic, systolic and mean blood pressure are derived as well as the heart rate. After surgery, the preparation is left to stabilize for 45 minutes after which compounds, dissolved in polyethylene glycol, are slowly infused with a Sage Instruments Infusion pump into the femoral vein. […] After completion of the last infusion, hemodynamic parameters are observed over 30 min and then a standard dose of 3.0 mg/kg milrinone is infused (over 5 min) to test preparation responsiveness. In the SHR, the following results were obtained for several known cardiovascular agents and for the compound of Examples 10,11,15 and 16.

Row | Structure (SMILES) | HR (Heart Rate: change from basal) (0.3 mg/kg i.v.) [%] | LVPT (time for Left Ventricular Pressure to decay from peak to 50%, % of basal) (0.3 mg/kg i.v.) [%] | MBP (Mean Blood Pressure: change from basal) (0.3 mg/kg i.v.) [%] | RT64 (change in time from maximal relaxation, % of basal) (0.3 mg/kg i.v.) [%] | dP/dT40 (change in rate of systolic pressure increase of left ventricle measured at 40 mm Hg from basal) (0.3 mg/kg i.v.) [%] | HR (Heart Rate: change from basal) (1.0 mg/kg i.v.) [%] | LVPT (time for Left Ventricular Pressure to decay from peak to 50%, % of basal) (1.0 mg/kg i.v.) [%] | MBP (Mean Blood Pressure: change from basal) (1.0 mg/kg i.v.) [%] | RT64 (change in time from maximal relaxation, % of basal) (1.0 mg/kg i.v.) [%] | dP/dT40 (change in rate of systolic pressure increase of left ventricle measured at 40 mm Hg from basal) (1.0 mg/kg i.v.) [%] | HR (Heart Rate: change from basal) (3.0 mg/kg i.v.) [%] | LVPT (time for Left Ventricular Pressure to decay from peak to 50%, % of basal) (3.0 mg/kg i.v.) [%] | MBP (Mean Blood Pressure: change from basal) (3.0 mg/kg i.v.) [%] | RT64 (change in time from maximal relaxation, % of basal) (3.0 mg/kg i.v.) [%] | dP/dT40 (change in rate of systolic pressure increase of left ventricle measured at 40 mm Hg from basal) (3.0 mg/kg i.v.) [%] | HR (Heart Rate: change from basal) (10 mg/kg i.v.) [%] | LVPT (time for Left Ventricular Pressure to decay from peak to 50%, % of basal) (10 mg/kg i.v.) [%] | MBP (Mean Blood Pressure: change from basal) (10 mg/kg i.v.) [%] | RT64 (change in time from maximal relaxation, % of basal) (10 mg/kg i.v.) [%] | dP/dT40 (change in rate of systolic pressure increase of left ventricle measured at 40 mm Hg from basal) (10 mg/kg i.v.) [%] | further results
1 | COC(=O)C1=C(C)NC(C)=C(C(=O)OCCNC(=O)COc2ccc(-c3cc(C#N)c(=O)[nH]c3C)cc2)C1c1cccc(Cl)c1Cl (racemic) [Example 11, (±)-2,6-dimethyl-3-carbomethoxy-4-(2,3-dichlorophenvl)-5-{4-[1,2-dihydro-2-oxo-3-cyano-6-methyl-5(1H)-pyridyl]phenoxymethylenecarboxamindoethyloxycarbonyl}-1,4-dihydropyridine] | 2.8 | -14.4 | -12.5 | -15.7 | 4.5 | 1.7 | -22.4 | -16.3 | -22.8 | 6.9 | -0.5 | -34 | -36.7 | -26 | 3.5 | 0 | -31 | -45.8 | -34.5 | -9 | hemodynamic profile compared with Example 10 (in words) (i.v., SHR, compared with Example 10): A similar profile was observed
2 | COC(=O)C1=C(C)NC(C)=C(C(=O)OCCNC(=O)COc2ccc(-c3cc(C#N)c(=O)[nH]c3C)cc2)C1c1cccc([N+](=O)[O-])c1 (single isomer, unassigned; (+)) [Example 15, (+)-2,6-dimethyl-3-carbomethoxy-4-(3-nitrophenyl)-5-{4-[1,2-dihydro-2-oxo-3-cyano-b 6-methyl-5(1H)-pyridyl]phenoxymethylenecarboxamidoethyloxycarbonyl}-1,4-dihydropyridine] |  |  |  |  |  |  |  |  |  |  |  |  |  |  |  | -1.9 | -4.2 | -39.8 | 1.6 | 11.9 | effect on blood pressure (in words) (10 mg/kg i.v., SHR): hypotension; effect on dP/dT40 (in words) (10 mg/kg i.v., SHR): slight increase in dP/dT40; effect on heart rate (in words) (10 mg/kg i.v., SHR): no change in heart rate; effect on myocardial relaxation time constants (in words) (10 mg/kg i.v., SHR): little effect
3 | COC(=O)C1=C(C)NC(C)=C(C(=O)OCCNC(=O)COc2ccc(-c3cc(C#N)c(=O)[nH]c3C)cc2)C1c1cccc([N+](=O)[O-])c1 (single isomer, unassigned; (-)) [Example 16, (-)-2,6-dimethyl-3-carbomethoxy-4-(3-nitrophenyl)-5-{4-[1,2-dihydro-2-oxo-3-cyano-6-methyl-5(1H)-pyridyl]phenoxymethylenecarboxamidoethyloxycarbonyl}-1,4-dihydropyridine] |  |  |  |  |  |  |  |  |  |  |  |  |  |  |  | -1.5 | -18 | -34.9 | -17.6 | 5 | effect on blood pressure (in words) (10 mg/kg i.v., SHR): hypotension; effect on dP/dT40 (in words) (10 mg/kg i.v., SHR): slight increase in dP/dT40; effect on heart rate (in words) (10 mg/kg i.v., SHR): no change in heart rate; effect on myocardial relaxation time constants (in words) (10 mg/kg i.v., SHR): marked reduction in myocardial relaxation time constants
4 | NNc1nncc2ccccc12 [Hydralazine] | 0 | 4.1 | -1.2 | 2 | 0 | 8 | 2.3 | -17.8 | 0 | 3.4 | 8.8 | -7.8 | -37.5 | -12.5 | 0 | 17 | -21.9 | -48 | -22.6 | 6.9 | effect on blood pressure (in words) (0.3 to 10 mg/kg i.v., SHR): hypotension; effect on dP/dT40 (in words) (0.3 to 10 mg/kg i.v., SHR): little change in dP/dT40; effect on heart rate (in words) (0.3 to 10 mg/kg i.v., SHR): reflex tachycardia; effect on myocardial relaxation time constants (in words) (0.3 to 10 mg/kg i.v., SHR): reduction in myocardial relaxation time constants only at 3 and 10 mg/kg
5 | Cc1[nH]c(=O)c(C#N)cc1-c1ccncc1 [Milrinone] | 10 | -15.5 | -10 | -13.7 | 27 | 12.4 | -22 | -29 | -20.5 | 28.3 | 16.2 | -30 | -29 | -36 | 34 |  |  |  |  |  | effect on blood pressure (in words) (0.3 to 3 mg/kg i.v., SHR): hypotension; effect on dP/dT40 (in words) (0.3 to 3 mg/kg i.v., SHR): an increase in dP/dT40; effect on heart rate (in words) (0.3 to 3 mg/kg i.v., SHR): tachycardia; effect on myocardial relaxation time constants (in words) (0.3 to 3 mg/kg i.v., SHR): a decrease in myocardial relaxation time constants (increased rate of relaxation)
6 | COC(=O)C1=C(C)NC(C)=C(C(=O)OC)C1c1ccccc1[N+](=O)[O-] [Nifedipine] | 1 | 3 | -30 | -7 | 2 | -5 | -7 | -47.5 | -21 | -15.5 | -7.5 | -18.5 | -47.5 | -25 | -28.8 |  |  |  |  |  | HR (Heart Rate: change from basal) (0.1 mg/kg i.v.): 3%; LVPT (time for Left Ventricular Pressure to decay from peak to 50%, % of basal) (0.1 mg/kg i.v.): -8%; MBP (Mean Blood Pressure: change from basal) (0.1 mg/kg i.v.): -12%; RT64 (change in time from maximal relaxation, % of basal) (0.1 mg/kg i.v.): -7%; dP/dT40 (change in rate of systolic pressure increase of left ventricle measured at 40 mm Hg from basal) (0.1 mg/kg i.v.): 7.5%; effect on blood pressure (in words) (0.1 to 3 mg/kg i.v., SHR): hypotension; effect on dP/dT40 (in words) (0.1 to 3 mg/kg i.v., SHR): a depression of dP/dT40; effect on heart rate (in words) (0.1 to 3 mg/kg i.v., SHR): little change in heart rate; effect on myocardial relaxation time constants (in words) (0.1 to 3 mg/kg i.v., SHR): significant reduction of myocardial relaxation time constants only at the highest dose tested (3 mg/kg)
